{"source": "ChEMBL document CHEMBL3045835", "about": "“Comparative study of conventional and microwave-assisted synthesis of some Schiff bases and their potential as antimicrobial agents” (2012)", "type_in_all_cases": "functional", "key": {"[1]": {"system": "Pseudomonas fluorescens", "test": "Antibacterial activity against Pseudomonas fluorescens MTCC 2421 at 500 ug/ml after 18 hr by cup-plate method", "conditions": "MTCC 2421, 18 h, read-out: DIZ"}, "[2]": {"system": "Bacillus pumilus", "test": "Antibacterial activity against Bacillus pumilus MTCC 1456 at 1500 ug/ml after 18 hr by cup-plate method", "conditions": "MTCC 1456, 18 h, read-out: DIZ"}, "[3]": {"system": "Aspergillus niger", "test": "Antifungal activity against Aspergillus niger MTCC 2546 at 100 ug/ml after 18 hr by cup-plate method", "conditions": "MTCC 2546, 18 h, read-out: DIZ"}, "[4]": {"system": "Bacillus pumilus", "test": "Antibacterial activity against Bacillus pumilus MTCC 1456 at 1000 ug/ml after 18 hr by cup-plate method", "conditions": "MTCC 1456, 18 h, read-out: DIZ"}, "[5]": {"system": "Staphylococcus aureus", "test": "Antibacterial activity against Staphylococcus aureus MTCC 1430 at 200 ug/ml after 18 hr by cup-plate method", "conditions": "MTCC 1430, 18 h, read-out: DIZ"}, "[6]": {"system": "Penicillium chrysogenum", "test": "Antifungal activity against Penicillium chrysogenum MTCC 161 at 1000 ug/ml after 18 hr by cup-plate method", "conditions": "MTCC 161, 18 h, read-out: DIZ"}, "[7]": {"system": "Bacillus subtilis", "test": "Antibacterial activity against Bacillus subtilis MTCC 441 at 1000 ug/ml after 18 hr by cup plate method", "conditions": "MTCC 441, 18 h, read-out: DIZ"}, "[8]": {"system": "Bacillus pumilus", "test": "Antibacterial activity against Bacillus pumilus MTCC 1456 at 200 ug/ml after 18 hr by cup-plate method", "conditions": "MTCC 1456, 18 h, read-out: DIZ"}, "[9]": {"system": "Bacillus pumilus", "test": "Antibacterial activity against Bacillus pumilus MTCC 1456 at 100 ug/ml after 18 hr by cup-plate method", "conditions": "MTCC 1456, 18 h, read-out: DIZ"}, "[10]": {"system": "Micrococcus luteus", "test": "Antibacterial activity against Micrococcus luteus MTCC 1538 after 24 hr by broth dilution method", "conditions": "MTCC 1538, 24 h"}, "[11]": {"system": "Pseudomonas aeruginosa", "test": "Antibacterial activity against Pseudomonas aeruginosa MTCC 424 at 500 ug/ml after 18 hr by cup-plate method", "conditions": "MTCC 424, 18 h, read-out: DIZ"}, "[12]": {"system": "Bacillus subtilis", "test": "Antibacterial activity against Bacillus subtilis MTCC 441 at 500 ug/ml after 18 hr by cup plate method", "conditions": "MTCC 441, 18 h, read-out: DIZ"}, "[13]": {"system": "Penicillium chrysogenum", "test": "Antifungal activity against Penicillium chrysogenum MTCC 161 after 24 hr by broth dilution method", "conditions": "MTCC 161, 24 h"}, "[14]": {"system": "Pseudomonas fluorescens", "test": "Antibacterial activity against Pseudomonas fluorescens MTCC 2421 at 1000 ug/ml after 18 hr by cup-plate method", "conditions": "MTCC 2421, 18 h, read-out: DIZ"}, "[15]": {"system": "Micrococcus luteus", "test": "Antibacterial activity against Micrococcus luteus MTCC 1538 at 1000 ug/ml after 18 hr by cup-plate method", "conditions": "MTCC 1538, 18 h, read-out: DIZ"}, "[16]": {"system": "Micrococcus luteus", "test": "Antibacterial activity against Micrococcus luteus MTCC 1538 at 1500 ug/ml after 18 hr by cup-plate method", "conditions": "MTCC 1538, 18 h, read-out: DIZ"}, "[17]": {"system": "Pseudomonas fluorescens", "test": "Antibacterial activity against Pseudomonas fluorescens MTCC 2421 at 100 ug/ml after 18 hr by cup-plate method", "conditions": "MTCC 2421, 18 h, read-out: DIZ"}, "[18]": {"system": "Pseudomonas fluorescens", "test": "Antibacterial activity against Pseudomonas fluorescens MTCC 2421 at 200 ug/ml after 18 hr by cup-plate method", "conditions": "MTCC 2421, 18 h, read-out: DIZ"}, "[19]": {"system": "Staphylococcus aureus", "test": "Antibacterial activity against Staphylococcus aureus MTCC 1430 at 1000 ug/ml after 18 hr by cup-plate method", "conditions": "MTCC 1430, 18 h, read-out: DIZ"}, "[20]": {"system": "Penicillium chrysogenum", "test": "Antifungal activity against Penicillium chrysogenum MTCC 161 at 1500 ug/ml after 18 hr by cup-plate method", "conditions": "MTCC 161, 18 h, read-out: DIZ"}, "[21]": {"system": "Staphylococcus aureus", "test": "Antibacterial activity against Staphylococcus aureus MTCC 1430 after 24 hr by broth dilution method", "conditions": "MTCC 1430, 24 h"}, "[22]": {"system": "Penicillium chrysogenum", "test": "Antifungal activity against Penicillium chrysogenum MTCC 161 at 100 ug/ml after 18 hr by cup-plate method", "conditions": "MTCC 161, 18 h, read-out: DIZ"}, "[23]": {"system": "Escherichia coli", "test": "Antibacterial activity against Escherichia coli MTCC 1573 at 500 ug/ml after 18 hr by cup-plate method", "conditions": "MTCC 1573, 18 h, read-out: DIZ"}, "[24]": {"system": "Micrococcus luteus", "test": "Antibacterial activity against Micrococcus luteus MTCC 1538 at 500 ug/ml after 18 hr by cup-plate method", "conditions": "MTCC 1538, 18 h, read-out: DIZ"}, "[25]": {"system": "Escherichia coli", "test": "Antibacterial activity against Escherichia coli MTCC 1573 at 1500 ug/ml after 18 hr by cup-plate method", "conditions": "MTCC 1573, 18 h, read-out: DIZ"}, "[26]": {"system": "Aspergillus niger", "test": "Antifungal activity against Aspergillus niger MTCC 2546 at 200 ug/ml after 18 hr by cup-plate method", "conditions": "MTCC 2546, 18 h, read-out: DIZ"}, "[27]": {"system": "Bacillus subtilis", "test": "Antibacterial activity against Bacillus subtilis MTCC 441 at 100 ug/ml after 18 hr by cup plate method", "conditions": "MTCC 441, 18 h, read-out: DIZ"}}}
{"smiles": "C(=N/c1nc[nH]n1)/c1cccc2ccccc12", "values": [{"measurement": "zone of inhibition at 500 µg/mL", "setting": "[1]", "value": 19, "unit": "mm"}, {"measurement": "zone of inhibition at 1500 µg/mL", "setting": "[2]", "value": 20, "unit": "mm"}, {"measurement": "zone of inhibition at 100 µg/mL", "setting": "[3]", "value": 16, "unit": "mm"}, {"measurement": "zone of inhibition at 1000 µg/mL", "setting": "[4]", "value": 18, "unit": "mm"}, {"measurement": "zone of inhibition at 200 µg/mL", "setting": "[5]", "value": 13, "unit": "mm"}, {"measurement": "zone of inhibition at 1000 µg/mL", "setting": "[6]", "value": 21, "unit": "mm"}, {"measurement": "zone of inhibition at 1000 µg/mL", "setting": "[7]", "value": 19, "unit": "mm"}, {"measurement": "zone of inhibition at 200 µg/mL", "setting": "[8]", "value": 16, "unit": "mm"}, {"measurement": "zone of inhibition at 100 µg/mL", "setting": "[9]", "value": 13, "unit": "mm"}, {"measurement": "MIC", "setting": "[10]", "value": 300, "unit": "µg/mL"}, {"measurement": "zone of inhibition at 500 µg/mL", "setting": "[11]", "value": 20, "unit": "mm"}, {"measurement": "zone of inhibition at 500 µg/mL", "setting": "[12]", "value": 18, "unit": "mm"}, {"measurement": "MIC", "setting": "[13]", "value": 50, "unit": "µg/mL"}, {"measurement": "zone of inhibition at 1000 µg/mL", "setting": "[14]", "value": 21, "unit": "mm"}, {"measurement": "zone of inhibition at 1000 µg/mL", "setting": "[15]", "value": 20, "unit": "mm"}, {"measurement": "zone of inhibition at 1500 µg/mL", "setting": "[16]", "value": 23, "unit": "mm"}, {"measurement": "zone of inhibition at 100 µg/mL", "setting": "[17]", "value": 14, "unit": "mm"}, {"measurement": "zone of inhibition at 200 µg/mL", "setting": "[18]", "value": 16, "unit": "mm"}, {"measurement": "zone of inhibition at 1000 µg/mL", "setting": "[19]", "value": 16, "unit": "mm"}, {"measurement": "zone of inhibition at 1500 µg/mL", "setting": "[20]", "value": 24, "unit": "mm"}, {"measurement": "MIC", "setting": "[21]", "value": 400, "unit": "µg/mL"}, {"measurement": "zone of inhibition at 100 µg/mL", "setting": "[22]", "value": 17, "unit": "mm"}, {"measurement": "zone of inhibition at 500 µg/mL", "setting": "[23]", "value": 19, "unit": "mm"}, {"measurement": "zone of inhibition at 500 µg/mL", "setting": "[24]", "value": 18, "unit": "mm"}, {"measurement": "zone of inhibition at 1500 µg/mL", "setting": "[25]", "value": 25, "unit": "mm"}, {"measurement": "zone of inhibition at 200 µg/mL", "setting": "[26]", "value": 17, "unit": "mm"}, {"measurement": "zone of inhibition at 100 µg/mL", "setting": "[27]", "value": 15, "unit": "mm"}]}
